Experimental data taken from patent publication US4550186A, “Binuclear copper (II) carboxylates formed from amine-carboxyboranes” (Duke University, priority 1983, dated 1985).

Legend:
[1] = Relative solubilities in solvents; type: physicochemical
Text: Solvents in which ligand exchange reactions or initial formation of the complex may take place depend on the structure of the amine portion of the complex and on the ligand being introduced as is well understood by those skilled in the art. Typical solvents which may be used include water and polar organic solvents, such as methanol and pyridine. Typical of solubilities are the following relative solubilities of {Cu[(Me3 NBH2 COO)2.Me3 NBH2 CO2 H]}2 : […]

[2] = test system: Holtzman male rats; test: Antihyperlipidemic screen in normal rats; type: in vivo, rat
Procedure: (§1) Compounds to be tested were suspended in 1% carboxymethylcellulose-water and administered to CF1 male mice (~25 g) intraperitoneally for 16 days or Holtzman male rats (~350 g) orally by an intubation needle for 16 days. On days 9 or 16, blood was obtained by tail vein bleeding and the serum separated by centrifugation for 3 min. The serum cholesterol levels were determined by a modification of the Liebermann-Burchard reaction as described in Ness et al, Clin. Chim. Acta, 10, 229 (1964). Serum was also collected on day 16 and the triglyceride content was determined by a commercial kit, The Fisher Hycel Triglyceride Test Kit.
(§2) Data are expressed in the Table 2-7 as percent of control ± the standard deviation. The probable significant level (P) between each test group and the control group was determined by the Student's "t" test.

[3] = test system: sn-Glycerol 3-phosphate Acyl Transferase; test: In vivo liver enzyme study: sn-glycerol 3-phosphate acyl transferase; design: species or system mouse; conditions: CF1 liver after 16 days i.p.
Procedure: (§3) In vitro enzymatic studies were determined using 10% homogenates of CF1 male mouse liver with 50-200 μM of test drugs. In vivo enzymatic studies were determined using 10% homogenates of liver from CF1 male mice obtained after administering the agents for 16 days at a dose ranging from 2.5-20 mg/kg/day intraperitoneally. The liver homogenates for both in vitro and in vivo studies were prepared in 0.25M sucrose and 0.001M (ethylenedinitrilo)tetraacetic acid. Acetyl coenzyme A synthetase and adenosine triphosphate dependent citrate lyase activities were determined spectrophotometrically at 540 nm as the hydroxylamate of acetyl coenzyme A formed after 30 min at 37° C. Mitochondrial citrate exchange was determined by the procedure of Robinson et al [Eur. J. Biochem., 216, 63 (1970)] using ^14 C-sodium bicarbonate (41 mCi/mmol) incorporated into mitochondrial ^14 C-citrate after isolating rat mitochondria (9000 g×10 min) from the homogenates. The exchanges of the ^14 C-citrate were determined after incubating the mitochondrial fraction which was loaded with labeled citrate and test drugs for 10 min. Then the radioactivity was measured in the mitochondrial and supernantant fractions in scintillation fluid and expressed as a percentage. Cholesterol side chain oxidation was determined by the method of Kritchevsky and Tepper [Artherosclerosis, 18, 93 (1973)] using (26-^14 C) cholesterol (50 mCi/mmol) and mitochondria isolated from rat liver homogenates. […] Fatty acid synthetase activity was determined by the method of Brady et al [J. Biol. Chem., 235, 3093 (1960)] using [2-^14 C] malonyl-coenzyme A (37.5 mCi/mmol) which was incorporated into newly synthesized fatty acids that were extracted with ether and counted. Acyl transferase activity was determined with glycerol-3phosphate [L-2-^3 H(N)] […] HCl and counted. Phosphatidate phosphohydrolase activity was measured as the inorganic phosphate released after 30 min from phosphatidic acid by the method of Mavis et al [J. Lipid Res., 19, 467 (1978)]. […]

[4] = test system: Acetyl CoA synthetase; test: In vitro liver enzyme study: acetyl CoA synthetase; type: biochemical, mouse; conditions: in vitro CF1 liver, 30 min
Procedure: as §3

[5] = test system: CF1 male mice; test: Antihyperlipidemic screen in normal mice; type: in vivo, mouse; conditions: for Serum Cholesterol / Serum Triglyceride: CF1 male mice I.P.
Procedure: as §1, §2

[6] = molecular target: T1, Acetyl CoA Carboxylase (Mus musculus, UniProt Q5SWU9); test: In vitro liver enzyme study: acetyl CoA carboxylase; type: biochemical; conditions: in vitro CF1 liver
T1 construct: 10% homogenates of CF1 male mouse liver; from tissue; host or cells: CF1 male mouse liver, 10% homogenate
Procedure: as §3

[7] = rats orally, 10.0 mg/kg, Day 16

What does the source list for “{Cu[(CH3)3 N.BH2 CO2 ]2.(CH3)3 N.BH2 COOH} [Compound I]”?
Solubility ([1]; 2-Chloro-2-methylpropane): insoluble; Solubility ([1]; Acetic Acid): moderately soluble; Solubility ([1]; Acetone): insoluble; Solubility ([1]; Acetonitrile): moderately soluble; Solubility ([1]; Benzene): insoluble; Solubility ([1]; Chloroform): insoluble; Solubility ([1]; Diethyl ether): insoluble; Solubility ([1]; Dimethyl sulfoxide): moderately soluble; Solubility ([1]; Ethanol): very slightly soluble; Solubility ([1]; Ethyl Acetate): insoluble; Solubility ([1]; Isopropanol): insoluble; Solubility ([1]; Isopropyl ether): insoluble; Solubility ([1]; Methanol): moderately soluble; Solubility ([1]; Methylene chloride): slightly soluble; Solubility ([1]; Pentane): insoluble; Solubility ([1]; Pyridine): moderately soluble; Solubility ([1]; Tetrahydrofuran): insoluble; Solubility ([1]; Water): very soluble; Serum Cholesterol ([2]; rats orally, 10.0 mg/kg, Day 9): 63 ± 5 % Control; Serum Cholesterol [2, 7]: 65 ± 5 % Control; Serum Triglyceride [2, 7]: 36 ± 4 % Control; Serum triglyceride levels reduced ([2]; rats, 10 mg/kg/day): 64%; reduction in serum cholesterol levels ([2]; rats, 10 mg/kg/day): 37%; sn-Glycerol 3-phosphate Acyl Transferase ([3]; 2.5 mg/kg): 95 ± 6% of control; sn-Glycerol 3-phosphate Acyl Transferase ([3]; 5.0 mg/kg): 95 ± 7% of control; sn-Glycerol 3-phosphate Acyl Transferase ([3]; 10 mg/kg): 119 ± 7% of control; Acetyl CoA synthetase ([4]; 50 μM): 104 ± 5 Percent Control; Acetyl CoA synthetase ([4]; 100 μM): 87 ± 4 Percent Control; Acetyl CoA synthetase ([4]; 200 μM): 84 ± 5 Percent Control; Serum Cholesterol ([5]; 2.5 mg/kg, Day 9): 61 ± 5 % Control; Serum Cholesterol ([5]; 2.5 mg/kg, Day 16): 62 ± 6 % Control; Serum Triglyceride ([5]; 2.5 mg/kg, Day 16): 50 ± 6 % Control; Serum Cholesterol ([5]; 5.0 mg/kg, Day 9): 67 ± 6 % Control; Serum Cholesterol ([5]; 5.0 mg/kg, Day 16): 63 ± 5 % Control; Serum Triglyceride ([5]; 5.0 mg/kg, Day 16): 69 ± 6 % Control; Serum Cholesterol ([5]; 10.0 mg/kg, Day 9): 71 ± 6 % Control; Serum Cholesterol ([5]; 10.0 mg/kg, Day 16): 63 ± 5 % Control; Serum Triglyceride ([5]; 10.0 mg/kg, Day 16): 47 ± 5 % Control; Serum Cholesterol ([5]; 20.0 mg/kg, Day 9): 52 ± 5 % Control; Serum Cholesterol ([5]; 20.0 mg/kg, Day 16): 53 ± 4 % Control; Serum triglyceride levels reduced ([5]; mice, 2.5 mg/kg/day): greater than 50%; Serum triglyceride levels reduced ([5]; mice, 10 mg/kg/day): greater than 50%; serum triglyceride reduction ([5]; mice, 10 mg/kg/day): 53%; reduction of serum cholesterol (maximal effect) ([5]; mice, 20 mg/kg/day): 47%; Acetyl CoA Carboxylase ([6]; 50 μM): 96 ± 6 Percent Control; Acetyl CoA Carboxylase ([6]; 100 μM): 93 ± 5 Percent Control; Acetyl CoA Carboxylase ([6]; 200 μM): 92 ± 5 Percent Control
